Read-outs that look alike come from different tables or passages of the source.
Assays:
Aerobacter aerogenes = test: agar plate paper-disc inhibition zone screening; assay type: cell-based; conditions: Klebsiella aerogenes, read-out: Inhibition Zone Diameter mm (Dose mg/ml) A. Aerogenes; for zone of inhibition at 500 µg/mL: Dose 0.5 mg/ml; for zone of inhibition at 3000 µg/mL: Dose 3.0 mg/ml; for zone of inhibition at 1000 µg/mL: Dose 1.0 mg/ml; for zone of inhibition at 100 µg/mL: Dose 0.1 mg/ml
Method in brief: (§1)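 Overnight bacterial cultures were suspended in 0.85% saline to 20-35% light transmittancy and mixed into molten assay agar poured in trays. Compounds at 3,000, 1,000, 500, 100 and 10 mcg/ml (solvent <10%) were applied to 12.7 mm paper discs; after 18-20 h at 37°C, inhibition zone diameters were measured in mm.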

Escherichia coli = test: agar plate paper-disc inhibition zone screening; assay type: cell-based; conditions: read-out: Inhibition Zone Diameter mm (Dose mg/ml) E. Coli; for zone of inhibition at 1000 µg/mL: Dose 1.0 mg/ml; for zone of inhibition at 3000 µg/mL: Dose 3.0 mg/ml; for zone of inhibition at 500 µg/mL: Dose 0.5 mg/ml
Method in brief: as §1

Bacillus subtilis = test: agar plate paper-disc inhibition zone screening; assay type: cell-based; conditions: read-out: Inhibition Zone Diameter mm (Dose mg/ml) B. Subtilis; for zone of inhibition at 100 µg/mL: Dose 0.1 mg/ml; for zone of inhibition at 1000 µg/mL: Dose 1.0 mg/ml; for zone of inhibition at 3000 µg/mL: Dose 3.0 mg/ml; for zone of inhibition at 500 µg/mL: Dose 0.5 mg/ml
Method in brief: as §1

Streptococcus faecalis = test: agar plate paper-disc inhibition zone screening; assay type: cell-based; conditions: Enterococcus faecalis, read-out: Inhibition Zone Diameter mm (Dose mg/ml) S. Faecalis; for zone of inhibition at 500 µg/mL: Dose 0.5 mg/ml; for zone of inhibition at 3000 µg/mL: Dose 3.0 mg/ml; for zone of inhibition at 1000 µg/mL: Dose 1.0 mg/ml
Method in brief: as §1

[1] = system: lymphocytic leukemia P388; test: in vivo lymphocytic leukemia P388 test; set-up: species or system mice; conditions: Mus musculus, P388, ip, 720 h, two single doses four days apart, read-out: T/C × 100 (Percent); for response vs control in vivo at 1.56 mg/kg: P388, Dose 1.56 mg/kg intraperitoneally; for response vs control in vivo at 3.12 mg/kg: P388, Dose 3.12 mg/kg intraperitoneally; for response vs control in vivo at 6.25 mg/kg: P388, Dose 6.25 mg/kg intraperitoneally; for response vs control in vivo at 12.5 mg/kg: P388, Dose 12.5 mg/kg intraperitoneally; for response vs control in vivo at 25 mg/kg: P388, Dose 25 mg/kg intraperitoneally; for response vs control in vivo at 100 mg/kg: P388, Dose 100 mg/kg intraperitoneally
Method in brief: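 Efficacy was judged from the treated/control survival-time ratio over 30 days (T/C×100 >125% as criterion). Mice (CD2F, 6–7/group) received i.p. P388 ascites cells, then compound i.p. at varied doses twice, four days apart.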

Penicillium avellaneum = test: agar plate paper-disc inhibition zone screening; assay type: cell-based; conditions: Hamigera avellanea, read-out: Inhibition Zone Diameter mm (Dose mg/ml) P. Avellaneum; for zone of inhibition at 3000 µg/mL: Dose 3.0 mg/ml; for zone of inhibition at 1000 µg/mL: Dose 1.0 mg/ml
Method in brief: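 Mycelia and spores from a six-day 28°C agar culture, suspended in saline with 0.05% Tween 80 at 20% transmittancy, were seeded into molten agar trays. Compounds at 3,000, 1,000, 500, 100 and 10 mcg/ml (solvent <10%) were applied on 12.7 mm paper discs. After at least 20-24 h incubation, inhibition zone diameter was measured in mm.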

[2] = system: HCT-8 (human colon adenocarcinoma) cells; test: in vitro activity against human colon adenocarcinoma (HCT-8), cell count; assay type: cell-based
Description: HCT-8 (human colon adenocarcinoma) cells are trypsinized using Trypsin-EDTA. A single cell suspension is achieved by passing the cells through a 26 gauge needle with a 20 cc syringe. A cell suspension is prepared using RPMI 1640 growth medium (available from Gibco Laboratories) +10% fetal calf serum +50 µg/ml garamycin with a cell concentration of approximately 30,000 cells/ml. The cell suspension is dispensed in Linbro 24-well plates; 1 ml/well. The plates are incubated for approximately 48 hrs at 37°C in a 5% C02 atmosphere. At this time test compounds are added in the appropriate concentration. Five µl of the 200 µg/ml stock solution is added to each well in a primary test. Ten pl of the appropriate dilution is added to each well for a titration test. The plates are reincubated an additional 60-65 hrs at 37°C in a 5% C02 atmosphere. The test is read by lysing the cells using a mix of cationic surfactant, glacial acetic acid and sodium chloride. […] of the lysed cell suspension from each well is added to 8 ml of diluent. Each sample is read with a Coulter counter (ZBI model). The activity of each sample is measured as a percentage of the controls and the data is reported as ID50, that is the molar quantity of drug required to kill 50% of the tumor cells.

[3] = Homo sapiens, HCT-8 cells, 60-65 hrs with compound, molar quantity of drug required to kill 50% of the tumor cells, read-out: ID50 Molar

| SMILES | zone of inhibition at 500 µg/mL (Aerobacter aerogenes) | zone of inhibition at 500 µg/mL (Streptococcus faecalis) | response vs control in vivo at 1.56 mg/kg [1] | response vs control in vivo at 6.25 mg/kg [1] | response vs control in vivo at 25 mg/kg [1] | zone of inhibition at 3000 µg/mL (Penicillium avellaneum) | IC50 [2, 3] | zone of inhibition at 1000 µg/mL (Escherichia coli) | zone of inhibition at 1000 µg/mL (Bacillus subtilis) | zone of inhibition at 3000 µg/mL (Streptococcus faecalis) | zone of inhibition at 3000 µg/mL (Escherichia coli) | other results |
| --- | --- | --- | --- | --- | --- | --- | --- | --- | --- | --- | --- | --- |
| CCN(CC)CCNc1ccc2c3c(nn2CCNCCO)-c2ccccc2C(=O)c13 [Example 23, 5-[[2-(Diethylamino)ethyl]amino]-2-[2-[(2-hydroxyethyl)amino]ethyl]anthra[1,9-cd]pyrazol-6(2H)-one] | 18 mm | 15 mm | 138% | 138% | 149% | 16 mm | 120 nM |  |  |  |  | zone of inhibition at 100 µg/mL (Escherichia coli; Dose 0.1 mg/ml): 14 mm; zone of inhibition at 100 µg/mL (Bacillus subtilis): 14 mm; response vs control in vivo at 3.12 mg/kg [1]: 143%; response vs control in vivo at 12.5 mg/kg [1]: 150% |
| CCN(CC)CCn1nc2c3c(c(NCCN)ccc31)C(=O)c1c(O)ccc(O)c1-2 [Example 30, 5-[(2-Aminoethyl)amino]-2-(2-(diethylamino)ethyl]-7,10-dihydroxyanthra[1,9-cd]pyrazol-6(2H)-one] | 16 mm |  | 172% | 189% | 179% | 14 mm | 380 nM | 15 mm | 16 mm | 0 mm |  | response vs control in vivo at 3.12 mg/kg [1]: 154% |
| CN(C)CCCn1nc2c3c(c(NCCNCCO)ccc31)C(=O)c1c(O)ccc(O)c1-2 [Example 46, 2-[3-(Dimethylamino)propyl]-7,10-dihydroxy-5-[[2-[(2-hydroxyethyl)amino]ethyl]amino]anthra[1,9-cd]pyrazol-6(2H)-one] |  |  |  | 185% |  | 0 mm |  |  |  | 0 mm | 0 mm | zone of inhibition at 3000 µg/mL (Aerobacter aerogenes): 16 mm; zone of inhibition at 3000 µg/mL (Bacillus subtilis): 0 mm; response vs control in vivo at 12.5 mg/kg [1]: 218%; IC50 ([2]; HCT-8 human colon adenocarcinoma cells, 60-65 hrs incubation with compound, Coulter counter cell count as percentage of controls, read-out: ID50 (the source's name)): 92 nM |
| O=C1c2ccccc2-c2nn(CCNCCO)c3ccc(NCCNCCO)c1c23 [Example 21, 2-[2-[(2-Hydroxyethyl)amino]ethyl]-5-[[2-[(2-hydroxyethyl)amino]ethyl]amino]anthra[1,9-cd]pyrazol-6(2H)-one] |  |  | 132% | 147% | 171% | 0 mm | 960 nM |  |  | 0 mm | 16 mm | zone of inhibition at 1000 µg/mL (Aerobacter aerogenes): 14 mm; zone of inhibition at 500 µg/mL (Bacillus subtilis): 18 mm; response vs control in vivo at 50 mg/kg ([1]; P388, Dose 50 mg/kg intraperitoneally): 199% |
| CCN(CC)CCNc1ccc2c3c(nn2CCN(CC)CC)-c2c(O)ccc(O)c2C(=O)c13 [Example 29, 2-[2-(Diethylamino)ethyl]-5-[[2-(diethylamino)ethyl]amino]-7,10-dihydroxyanthra[1,9-cd]pyrazol-6(2H)-one] |  | 14 mm |  |  | 140% | 16 mm | 640 nM |  |  |  |  | zone of inhibition at 3000 µg/mL (Aerobacter aerogenes): 0 mm; zone of inhibition at 500 µg/mL (Escherichia coli): 14 mm; zone of inhibition at 500 µg/mL (Bacillus subtilis): 14 mm; response vs control in vivo at 100 mg/kg [1]: 180% |
| O=C1c2ccccc2-c2n[nH]c3ccc(NCCNCCO)c1c23 [Example 19, 5-[[2-[(2-Hydroxyethyl)amino]ethyl]amino]anthra[1,9-cd]pyrazol-6-(2H)-one] | 18 mm |  |  |  |  | 0 mm | 1500 nM |  |  | 17 mm | 0 mm | zone of inhibition at 500 µg/mL (Bacillus subtilis): 19 mm |
| CCN(CC)CCn1nc2c3c(c(NCCN4CCOCC4)ccc31)C(=O)c1ccccc1-2 [Example 4] |  | 14 mm |  |  |  |  | 120 nM | 14 mm | 25 mm |  |  | zone of inhibition at 1000 µg/mL (Aerobacter aerogenes): 15 mm; response vs control in vivo at 100 mg/kg [1]: 145%; response vs control in vivo at 400 mg/kg ([1]; P388, Dose 400 mg/kg intraperitoneally): 211%; zone of inhibition at 1000 µg/mL (Penicillium avellaneum): 14 mm |
| CCN(CC)CCCCNc1ccc2c3c(nn2CCN(CC)CC)-c2ccccc2C(=O)c13 [Example 7] |  |  |  |  |  | 14 mm | 220 nM |  | 17 mm |  | 15 mm | zone of inhibition at 100 µg/mL (Aerobacter aerogenes): 16 mm; zone of inhibition at 1000 µg/mL (Streptococcus faecalis): 14 mm |
| NCCn1nc2c3c(c(NCCNCCO)ccc31)C(=O)c1ccccc1-2 [Example 27, 2-(2-Aminoethyl)-5-[[2-[(2-hydroxyethyl)amino]ethyl]amino]anthra[1,9-cd]pyrazol-6(2H)-one] |  |  | 139% | 158% | 187% | 0 mm | 68 nM |  |  | 0 mm |  | zone of inhibition at 100 µg/mL (Aerobacter aerogenes): 17 mm; zone of inhibition at 500 µg/mL (Escherichia coli): 14 mm; zone of inhibition at 3000 µg/mL (Bacillus subtilis): 14 mm; response vs control in vivo at 3.12 mg/kg [1]: 149%; response vs control in vivo at 12.5 mg/kg [1]: 173% |
| Cn1nc2c3c(c(NCCNCCO)ccc31)C(=O)c1ccccc1-2 [Example 11, 5-[[2-[(2-Hydroxyethyl)amino]ethyl]amino]-2-methylanthra[1,9-cd]pyrazol-6(2H)-one] | 17 mm |  |  |  |  | 0 mm | 400 nM | 14 mm |  |  |  | zone of inhibition at 100 µg/mL (Bacillus subtilis): 14 mm; zone of inhibition at 1000 µg/mL (Streptococcus faecalis): 14 mm |
| CCN(CC)CCn1nc2c3c(c(NCCN4CCNCC4)ccc31)C(=O)c1ccccc1-2 [Example 9, 2-(2-(Diethylamino)ethyl]-5-[[2-(1-piperazinyl)ethyl]amino]anthra[1,9-cd]pyrazol-6(2H)-one] |  |  |  |  |  |  | 380 nM |  | 24 mm | 14 mm | 0 mm | zone of inhibition at 100 µg/mL (Aerobacter aerogenes): 19 mm; zone of inhibition at 1000 µg/mL (Penicillium avellaneum): 0 mm |
| CCN(CC)CCNc1ccc2c3c(nn2CCN(CC)CC)-c2ccccc2C(=O)c13 [Example 1] | 19 mm | 14 mm |  |  |  | 19 mm | 140 nM | 15 mm |  |  |  | zone of inhibition at 100 µg/mL (Bacillus subtilis): 15 mm |
